Assay results from ChEMBL document CHEMBL3039007, “Structure-based identification of OATP1B1/3 inhibitors” (Mol Pharmacol, 2013).

Columns and labels:
[1] = target: T1, Solute carrier organic anion transporter family member 1B1 (Homo sapiens, UniProt Q9Y6L6); details: chinese hamster, cho, 10 µM
T1 sequence (Q9Y6L6 whole entry): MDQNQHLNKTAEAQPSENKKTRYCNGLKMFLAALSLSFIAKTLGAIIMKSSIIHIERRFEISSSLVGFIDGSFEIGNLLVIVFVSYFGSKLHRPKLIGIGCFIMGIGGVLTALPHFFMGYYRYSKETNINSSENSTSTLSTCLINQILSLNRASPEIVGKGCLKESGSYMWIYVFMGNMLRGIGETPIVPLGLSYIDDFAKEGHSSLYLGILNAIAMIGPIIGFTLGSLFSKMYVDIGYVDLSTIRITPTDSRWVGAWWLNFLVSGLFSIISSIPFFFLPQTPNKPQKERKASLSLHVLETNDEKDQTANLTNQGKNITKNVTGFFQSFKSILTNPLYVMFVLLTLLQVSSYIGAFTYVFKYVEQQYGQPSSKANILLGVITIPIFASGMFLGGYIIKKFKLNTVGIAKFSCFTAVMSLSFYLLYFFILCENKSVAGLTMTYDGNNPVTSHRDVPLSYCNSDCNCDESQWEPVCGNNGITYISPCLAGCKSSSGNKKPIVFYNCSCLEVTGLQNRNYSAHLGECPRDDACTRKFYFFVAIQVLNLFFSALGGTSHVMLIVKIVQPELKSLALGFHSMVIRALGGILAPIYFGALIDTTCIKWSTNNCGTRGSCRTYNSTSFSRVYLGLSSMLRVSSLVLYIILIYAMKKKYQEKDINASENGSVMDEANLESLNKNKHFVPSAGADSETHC

[2] = target: T2, Solute carrier organic anion transporter family member 1B3 (Homo sapiens, UniProt Q9NPD5); details: chinese hamster, cho, 10 µM
T2 sequence (Q9NPD5 whole entry): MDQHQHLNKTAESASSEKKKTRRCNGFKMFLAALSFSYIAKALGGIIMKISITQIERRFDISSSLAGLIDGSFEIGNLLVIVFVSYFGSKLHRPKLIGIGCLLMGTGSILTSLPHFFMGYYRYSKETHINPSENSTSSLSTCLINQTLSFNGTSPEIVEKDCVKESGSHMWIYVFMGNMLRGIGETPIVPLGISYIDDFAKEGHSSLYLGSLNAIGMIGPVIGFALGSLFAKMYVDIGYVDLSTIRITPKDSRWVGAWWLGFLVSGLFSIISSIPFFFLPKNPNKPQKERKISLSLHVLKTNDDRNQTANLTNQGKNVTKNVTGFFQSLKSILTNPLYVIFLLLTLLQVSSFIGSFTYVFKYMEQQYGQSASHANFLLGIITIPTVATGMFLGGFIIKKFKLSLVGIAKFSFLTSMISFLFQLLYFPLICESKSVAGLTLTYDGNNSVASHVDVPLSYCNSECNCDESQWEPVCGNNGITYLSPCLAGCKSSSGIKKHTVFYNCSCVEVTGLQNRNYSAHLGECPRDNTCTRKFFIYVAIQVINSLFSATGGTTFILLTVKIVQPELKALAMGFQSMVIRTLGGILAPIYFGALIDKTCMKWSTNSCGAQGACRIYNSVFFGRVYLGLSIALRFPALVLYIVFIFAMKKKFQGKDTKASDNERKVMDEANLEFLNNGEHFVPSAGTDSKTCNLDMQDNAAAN

Compound `CC1(C)O[C@@H]2C[C@H]3[C@@H]4C[C@H](F)C5=CC(=O)C=C[C@]5(C)[C@H]4[C@@H](O)C[C@]3(C)[C@]2(C(=O)CO)O1` [FLUNISOLIDE] has a residual activity [1] of 55.07% and a residual activity [2] of 77.49%.
For `Oc1c(Cl)c(Cl)c(Cl)c(Cl)c1Cl` [PENTACHLOROPHENOL], the residual activity [1] was 19.96% and the residual activity [2] was 40.68%.
Compound `CC(=O)Oc1ccc(O)cc1` [4-ACETOXYPHENOL] has a residual activity [1] of 136.7% and a residual activity [2] of 116.4%.
Work on `CC(N)CCCC(C)(C)O.Cl` (stereo not given) [HEPTAMINOL HYDROCHLORIDE] yielded a residual activity [1] of 95.56% and a residual activity [2] of 104.5%.
Work on `O=C(/C=C/c1ccc(O)c(O)c1)O[C@@H]1C[C@](O)(C(=O)O)C[C@@H](O)[C@H]1O` [CHLOROGENIC ACID] yielded a residual activity [1] of 105.9% and a residual activity [2] of 103.1%.
Work on `N=C(N)NCCCCN.O=S(=O)(O)O` [AGMATINE SULFATE] yielded a residual activity [1] of 111.9% and a residual activity [2] of 110%.
Work on `COc1ccc(CCN2CCC(Nc3nc4ccccc4n3Cc3ccc(F)cc3)CC2)cc1` [ASTEMIZOLE] yielded a residual activity [1] of 127.5% and a residual activity [2] of 97.68%.
`CC12CC3CC(C)(C1)CC(N)(C3)C2.Cl` [MEMANTINE HYDROCHLORIDE] gave a residual activity [1] of 88.64% and a residual activity [2] of 88.95%.
`COc1ccc2c(=O)c(CC(=O)O)coc2c1` [ANHYDROBRAZILIC ACID] showed a residual activity [1] of 56.09% and a residual activity [2] of 76.12%.
`CC(C)CCC[C@@H](C)[C@H]1CC[C@H]2[C@@H]3C[C@@H](O)[C@@]4(O)C[C@@H](O)CC[C@]4(C)[C@H]3CC[C@]12C` [CHOLESTAN-3beta,5alpha,6beta-TRIOL] gave a residual activity [1] of 90.42% and a residual activity [2] of 93.54%.
Work on `CC1=CC(=O)[C@H]2C(C)(C)CCC[C@]2(C)[C@@]1(O)CCc1ccoc1` yielded a residual activity [1] of 48.25% and a residual activity [2] of 78.78%.
With `CC(=O)Oc1cc2c(c(C)c1OC(C)=O)CC1OC13[C@@]2(C)CC[C@@]1(C)C2C[C@](C)(C(=O)O)CC[C@]2(C)CC[C@]31C` (stereo not given in full) the residual activity [1] was 63.61% and the residual activity [2] was 37.72%.
In the case of `O=C(O)c1cc(O)c(O)c(O)c1` [GALLIC ACID], the residual activity [1] is reported as 67.94% and the residual activity [2] is reported as 91.35%.
`CC(C)c1c(O)ccc2c1CCC1[C@@](C)(C(=O)O)CCC[C@]21C` (stereo not given in full) gave a residual activity [1] of 61.16% and a residual activity [2] of 80.85%.
With `CC[N+]1(C)CCCC(OC(=O)C(O)(c2ccccc2)c2ccccc2)C1.[Br-]` (stereo not given) [PIPENZOLATE BROMIDE] the residual activity [1] was 70.99% and the residual activity [2] was 86.01%.
With `CC(C)=CCC[C@]1(C)C=Cc2c(O)c3c(c(CC=C(C)C)c2C1)O[C@]12C(=C[C@@H]4C[C@H]1C(C)(C)O[C@@]2(C/C=C(/C)C(N)=O)C4=O)C3=O` the residual activity [1] was 57.81% and the residual activity [2] was 70.77%.
Work on `Oc1ccc2c(c1)OC[C@H]1c3cc4c(cc3O[C@@H]21)OCO4` [MAACKIAIN] yielded a residual activity [1] of 108.2% and a residual activity [2] of 114.4%.
`COc1c(C)c2c(c(O)c1C/C=C(\C)CCC(=O)O)C(=O)OC2` [MYCOPHENOLIC ACID] gave a residual activity [1] of 106.8% and a residual activity [2] of 100.1%.
With `C[N+]1(C)CCCC(OC(=O)C(O)(c2ccccc2)c2ccccc2)C1.[Br-]` (stereo not given) [MEPENZOLATE BROMIDE] the residual activity [1] was 121.8% and the residual activity [2] was 106.1%.
With `COc1cc2c(cc1-c1cc3cc4ccoc4cc3oc1=O)OCO2` [PACHYRRIZINE] the residual activity [1] was 139.6% and the residual activity [2] was 121.4%.
`CC(C)(OC(=O)c1ccccc1)[C@@H]1Cc2cc3ccc(=O)oc3cc2O1` [FELAMIDIN] gave a residual activity [1] of 115.2% and a residual activity [2] of 168.9%.
Compound `CC1=C(C(=O)O)N2C(=O)[C@@H](NC(=O)[C@H](N)c3ccc(O)cc3)[C@H]2SC1` [CEFADROXIL] has a residual activity [1] of 88.52% and a residual activity [2] of 101.2%.
`CCCCCC(=O)O[C@]1(C(C)=O)CC[C@H]2[C@@H]3CCC4=CC(=O)CC[C@]4(C)[C@H]3CC[C@@]21C` [HYDROXYPROGESTERONE CAPROATE] gave a residual activity [1] of 40.59% and a residual activity [2] of 55.76%.
`O=c1cc(CO)occ1O` [KOJIC ACID] gave a residual activity [1] of 79.88% and a residual activity [2] of 80.38%.
For `O=C(O)c1cc(=O)c2ccccc2o1` [CHROMOCARB], the residual activity [1] was 133.6% and the residual activity [2] was 93%.
In the case of `Cc1ccccc1OCC(O)CO` (stereo not given) [MEPHENESIN], the residual activity [1] is reported as 101% and the residual activity [2] is reported as 107.5%.
In the case of `N=C(N)NCCC[C@@H](NC(=O)[C@@H](N)Cc1ccc(O)cc1)C(=O)O` [d[-Arg-2]KYOTORPHAN ACETATE], the residual activity [1] is reported as 114.8% and the residual activity [2] is reported as 98.23%.
In the case of `CC(C)=CCOc1cc2oc(=O)ccc2cc1O` [PRENYLETIN], the residual activity [1] is reported as 176.8% and the residual activity [2] is reported as 136%.
`CC(=O)OC(C)(C)[C@@H]1Cc2cc3ccc(=O)oc3cc2O1` [MARMESIN ACETATE] showed a residual activity [1] of 70.52% and a residual activity [2] of 88.18%.
Compound `CC(CN1c2ccccc2Sc2ccccc21)N(C)C.Cl` (stereo not given) [PROMETHAZINE HYDROCHLORIDE] has a residual activity [1] of 69.15% and a residual activity [2] of 86.93%.
Compound `CC(=O)N[C@@H]1[C@@H](O)[C@H](O)[C@@H](CO)O[C@H]1O` [N-ACETYLGLUCOSAMINE] has a residual activity [1] of 48.98% and a residual activity [2] of 82.99%.
Compound `CC(C)NCC(O)c1ccc(O)c(O)c1.Cl` (stereo not given) [ISOPROTERENOL HYDROCHLORIDE] has a residual activity [1] of 105.2% and a residual activity [2] of 88.72%.
`COC(=O)c1c(OC)cc2c(c1C)Oc1c(Cl)c(OC(C)=O)c(Cl)c(C)c1C(=O)O2` [GANGLEOIDIN ACETATE] was tested, and the residual activity [1] was 34.6% and the residual activity [2] was 54.62%.
In the case of `CCCCC[C@@H](O)[C@H]1C(=O)O[C@H](C)[C@@H](O)/C=C/C=C/C=C/C=C/C=C(\C)[C@@H](O)C[C@H](O)C[C@H](O)C[C@H](O)C[C@H](O)C[C@H](O)C[C@@H]1O` [FILIPIN], the residual activity [1] is reported as 96.46% and the residual activity [2] is reported as 93.93%.
For `CC[C@@]1([C@H]2O[C@H]([C@H]3O[C@@](O)(CO)[C@H](C)C[C@@H]3C)C[C@H]2C)CC[C@H]([C@@]2(C)CC[C@]3(C[C@H](O)[C@@H](C)[C@@H]([C@H](C)[C@H](OC)[C@@H](C)C(=O)[O-])O3)O2)O1.[Na+]` [MONENSIN SODIUM], the residual activity [1] was 78.11% and the residual activity [2] was 87%.
In the case of `COc1cc2c(cc1OC)-c1cc3ccc(OC)c(OC)c3c[n+]1CC2` [PALMITINE], the residual activity [1] is reported as 78.6% and the residual activity [2] is reported as 102.6%.
For `COC(=O)C[C@H]1C(C)(C)[C@]2(Cl)O[C@@]34CC2C(=O)[C@]1(C)C3CC[C@]1(C)C4=CC(=O)O[C@H]1c1ccoc1` (stereo not given in full), the residual activity [1] was 68.86% and the residual activity [2] was 88.12%.
With `O[C@@H]1C[C@H]2CCC[C@@H](C1)N2Cc1ccccc1` [N-BENZYLTROPAN-4-OL] the residual activity [1] was 92.31% and the residual activity [2] was 88.98%.
In the case of `CN(C)CCC(c1ccc(Br)cc1)c1ccccn1.O=C(O)/C=C\C(=O)O` (stereo not given) [BROMPHENIRAMINE MALEATE], the residual activity [1] is reported as 88.52% and the residual activity [2] is reported as 90.7%.
`Oc1cc(O)c2c(c1)O[C@H](c1cc(O)c(O)c(O)c1)[C@H](O)[C@H]2c1c(O)cc(O)c2c1O[C@H](c1cc(O)c(O)c(O)c1)[C@H](O)[C@H]2c1c(O)cc(O)c2c1O[C@H](c1cc(O)c(O)c(O)c1)[C@H](O)C2` [KATACINE] showed a residual activity [1] of 133.4% and a residual activity [2] of 99.79%.
With `CCN(CC)CCCC(C)Nc1ccnc2cc(Cl)ccc12.O=P(O)(O)O.O=P(O)(O)O` (stereo not given) [CHLOROQUINE PHOSPHATE] the residual activity [1] was 84.34% and the residual activity [2] was 99.18%.
In the case of `CC(=O)Oc1cc(-c2coc3cc(OC(C)=O)c(OC(C)=O)c(OC(C)=O)c3c2=O)cc(OC(C)=O)c1OC(C)=O` [IRIGINOL HEXAACEATATE], the residual activity [1] is reported as 102.1% and the residual activity [2] is reported as 94.12%.
For `Nc1nc(N)c2nc(-c3ccccc3)c(N)nc2n1`, the residual activity [1] was 78.63% and the residual activity [2] was 69.61%.
For `CN(C)C(=O)Oc1cccc([N+](C)(C)C)c1.[Br-]` [NEOSTIGMINE BROMIDE], the residual activity [1] was 95.12% and the residual activity [2] was 101.1%.
`CON.Cl` [METHOXYAMINE HYDROCHLORIDE] gave a residual activity [1] of 118.4% and a residual activity [2] of 108.6%.
